Reference: patent US20070032418A1, “Small-molecule inhibitors of angiogenin and rnases and in vivo and in vitro methods of using same” (Ambion, Inc, priority 2003, published 2007)
Entries after “also recorded” stand apart in the source; their conditions may differ. Where two headings read alike, the source gives them in different places.

Tests used:
[1] = test system: HT-29 human colonic adenocarcinoma cells; test: HT-29 tumor formation in athymic mice; assay type: in vivo; conditions: local treatment s.c. 40 μg/day, 6×/week
Procedure: Mice were examined 2×/week for palpable tumors. Treatment doses: 40 μg/day (A and C); 8 μg/day (B). n=8 for all groups except the vehicle controls in A and B, where n=12.

angiogenin (ANG) = angiogenin (ANG) (Homo sapiens, UniProt P03950); test: Inhibition of ANG ribonucleolytic activity, HPLC assay of oligonucleotide cleavage; assay type: biochemical; conditions: 20 mM Hepes, 100 mM NaCl
Sequence of angiogenin (ANG) (P03950 25-147): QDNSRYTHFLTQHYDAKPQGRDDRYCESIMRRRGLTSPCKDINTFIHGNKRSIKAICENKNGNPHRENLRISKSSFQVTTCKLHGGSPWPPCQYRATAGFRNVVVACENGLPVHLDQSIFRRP
Procedure: Reaction mixtures with and without test compounds were chromatographed on a Mono Q anion-exchange column with an NaCl gradient in 10 mM Tris, pH 8. […] This information was used to calculate kcat/Km values, which were then fitted to the equation (kcat/Km)i=(kcat/Km)0/[…], where (kcat/Km)i and (kcat/Km)0 are defined as the values in the presence and absence of inhibitor, respectively, and [I] is defined as the inhibitor concentration. At least four concentrations (in a range of about 10 μM-above 100 μM) were used in the final hit confirmation in order to distinguish all true hits.
Chemical structures of selected compounds are shown in these Tables and in FIGS. 4 and 5.

[2] = test system: PC-3 human prostate tumor cells; test: PC-3 tumor formation in athymic mice; assay type: in vivo
Procedure: Compound NCI-65828 was identified by HTS as an ANG inhibitor. […] Each compound was administered 6 times per week, in doses of 40 μg, 8 μg, and 1.6 μg (about 2, 0.4 and 0.08 mg/kg/day). The compound was dissolved in DMSO, and control mice received a corresponding volume of DMSO (4%, 0.8% and 0%). Another control group received saline.
Another in vivo mouse experiment was performed using 8 or 12 mice per group. The experimental group was administered PC-3 cells and NCI-65828, as intraperitoneal injections (40 μg and 8 μg). A control group of mice was administered PC-3 cells and a related compound that was known to be ineffective at inhibiting ANG enzymatic activity. Mice were evaluated for number of animals that remained tumor free as a function of time, at intervals of 3 days from days 14-42 following the initial injection.
Concentrated stocks of inhibitors were prepared in dimethylsulfoxide (DMSO), and the inhibitors were diluted into phosphate-buffered saline (PBS); the final DMSO concentration for the 40 μg and 20 μg doses was 4% in PBS, and that for the 8 μg and 4 μg doses was 0.8% in PBS. Statistical significance (P values) was determined from Mantel-Cox tests performed on Kaplan-Meier survivor functions. Results for inhibitor-treated groups were compared to results obtained with the appropriate DMSO control groups. A positive control group of mice, administered antisense DNA specific for the ANG gene in PBS (no DMSO), was also included. ANG antisense DNA was shown previously to be extremely effective in this tumor model.
Tumor cells from a human prostate cancer (PC-3) were injected subcutaneously (s.c.) in the shoulder of 6-7 week old athymic (nude) mice on day 0. Treatment with the indicated amount of inhibitor (in 100 μL) was given subcutaneously in the same area as the cells, 6 times per week, with the first injection 5-10 minutes prior to injection of the cells. The total dosage was 0.4 mg to 2 mg per kg per day.

[3] = PC-3 s.c., 8 μg s.c. 6 times per week
[4] = PC-3 s.c., 40 μg s.c. 6 times per week

## Nc1ccc(/N=N/c2ccc(-c3ccc(O)cc3)cc2)c2ccc(S(=O)(=O)O)cc12 [NCI-65828, 8-amino-5-(4′-hydroxybiphenyl-4-ylazo)naphthalene-2-sulfonate]
[1]
  Formation of tumors (FIG. 1C): delay or prevention; also recorded: significantly delayed the formation of tumors
Angiogenin (ANG); pH 7.0, 37° C., read-out: Ki for inhibition of the ribonucleolytic activity of angiogenin
  Ki: 81 µM
Angiogenin (ANG); inhibition of ANG-catalyzed cleavage of an RNA oligonucleotide, 37° C., read-out: KI
  Ki: 81 µM
[2]; PC-3, 40 μg and 8 μg, days 14-42, vs controls
  Appearance of tumors (FIGS. 1A and 1B): delay or prevention; also recorded: delayed the appearance of tumors
[2]; PC-3, s.c. 6 times per week, doses of 40 μg, 8 μg and 1.6 μg, vs control groups
  Rate of tumor development (preliminary test): developed tumors at a slower rate
[2]; [3]
  Percentage of Tumor-Bearing Mice, day 14: 0%
  Percentage of Tumor-Bearing Mice, day 17: 38%
  Percentage of Tumor-Bearing Mice, day 21: 50%
  Percentage of Tumor-Bearing Mice, day 24: 100%
  Percentage of Tumor-Bearing Mice, day 32: 100%
  Percentage of Tumor-Bearing Mice, day 35: 100%
[2]; [4]
  Percentage of Tumor-Bearing Mice, day 14: 0%
  Percentage of Tumor-Bearing Mice, day 17: 25%
  Percentage of Tumor-Bearing Mice, day 21: 50%
  Percentage of Tumor-Bearing Mice, day 24: 100%
  Percentage of Tumor-Bearing Mice, day 32: 100%
  Percentage of Tumor-Bearing Mice, day 35: 100%
[2]; PC-3 s.c., treatment s.c. 6 times per week
  Time of appearance of tumors (Example 3, Table 1): delayed considerably the time of appearance of tumors
